Data from paper PMC4717123, “The cytochrome P450 CYP6P4 is responsible for the high pyrethroid resistance in knockdown resistance-free Anopheles arabiensis” (Insect Biochemistry and Molecular Biology, 2016).
Where two headings read alike, the source gives them in different places.

T1: CYP6P4 (Anopheles arabiensis, UniProt A0A0M4KNY0)
T1 sequence (A0A0M4KNY0 1-506): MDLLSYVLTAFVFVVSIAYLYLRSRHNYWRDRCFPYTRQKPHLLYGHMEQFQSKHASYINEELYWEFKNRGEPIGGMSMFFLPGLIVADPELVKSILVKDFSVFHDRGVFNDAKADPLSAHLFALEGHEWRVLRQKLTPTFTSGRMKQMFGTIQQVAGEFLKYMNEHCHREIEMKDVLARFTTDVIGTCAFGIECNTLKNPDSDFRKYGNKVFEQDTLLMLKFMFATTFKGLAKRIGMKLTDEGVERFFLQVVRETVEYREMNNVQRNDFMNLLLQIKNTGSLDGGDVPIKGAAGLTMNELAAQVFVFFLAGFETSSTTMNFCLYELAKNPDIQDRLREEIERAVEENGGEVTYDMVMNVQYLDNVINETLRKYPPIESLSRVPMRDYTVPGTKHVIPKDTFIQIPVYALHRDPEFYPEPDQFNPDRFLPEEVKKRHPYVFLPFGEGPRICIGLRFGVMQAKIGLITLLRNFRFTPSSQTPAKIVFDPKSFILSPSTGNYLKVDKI
T1 sequence (Q86QH5 1-679 partner): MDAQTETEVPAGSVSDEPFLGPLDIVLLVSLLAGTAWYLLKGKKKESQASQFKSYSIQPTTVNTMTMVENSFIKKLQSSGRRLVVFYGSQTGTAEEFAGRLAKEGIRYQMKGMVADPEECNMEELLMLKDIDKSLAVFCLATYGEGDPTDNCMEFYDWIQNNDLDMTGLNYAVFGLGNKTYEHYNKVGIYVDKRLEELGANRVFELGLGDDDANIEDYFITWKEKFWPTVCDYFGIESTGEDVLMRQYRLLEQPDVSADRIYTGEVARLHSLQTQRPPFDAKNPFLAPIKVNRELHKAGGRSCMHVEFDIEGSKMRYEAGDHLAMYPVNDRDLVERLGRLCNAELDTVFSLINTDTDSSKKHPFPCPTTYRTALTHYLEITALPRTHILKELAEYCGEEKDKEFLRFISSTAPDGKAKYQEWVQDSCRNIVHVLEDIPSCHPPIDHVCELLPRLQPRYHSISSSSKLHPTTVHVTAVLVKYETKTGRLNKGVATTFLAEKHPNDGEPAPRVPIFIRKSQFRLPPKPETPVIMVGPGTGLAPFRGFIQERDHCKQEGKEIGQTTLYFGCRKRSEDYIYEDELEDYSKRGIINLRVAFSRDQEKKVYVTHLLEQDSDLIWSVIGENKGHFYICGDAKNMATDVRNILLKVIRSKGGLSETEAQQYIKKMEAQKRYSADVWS

B1: recombinant CYP6P4 (Anopheles arabiensis) (protein)
chain: T1 sequence (A0A0M4KNY0 1-506)

Assays:
[1] = target: T1, CYP6P4; test: In vitro metabolism assays with insecticides (percentage depletion, HPLC); assay type: in vitro ADME; conditions: for metabolised at 1 h, 20 µM: Anopheles arabiensis, recombinant cyp6p4
Procedure: 0.2 M Tris–HCl and NADPH-regeneration components were added to the bottom of 1.5 ml tube chilled on ice. Membranes expressing recombinant CYP6P4 and AgCPR (and reconstituted with cytochrome b5) were added to the side of the tube and pre-incubated for 5 min at 30 °C, with shaking at 1200 rpm. […] Reactions were quenched with 0.1 ml ice-cold methanol and incubated for 5 more minutes to precipitate protein. Tubes were then centrifuged at 16,000 rpm and 4 °C for 15 min, and 150 μl of supernatant transferred into HPLC vials for analysis. All reactions were carried out in triplicate with experimental samples (+NADPH) and negative controls (-NADPH). […] For the other insecticides, mobile phases were 65:35 (bendiocarb) and 60:40 v/v (propoxur and malathion) acetonitrile to water, respectively with column temperature of 40 °C for bendiocarb and propoxur. Bendiocarb and propoxur were detected at 205 nm and 270 nm respectively, whilst malathion was detected at 230 nm. Enzyme activity was calculated as percentage depletion (the difference in the amount of insecticide(s) remaining in the +NADPH tubes compared with the –NADPH) and a t-test used for statistical analysis.

[2] = system: An. arabiensis populations from Ndjamena; set-up: method as in Witzig et al., 2013; conditions: Chad, 2009, ref Witzig et al., 2013; cited from earlier work
[3] = target: T1, CYP6P4; test: Inhibition assay of CYP6P4 metabolism of diethoxyfluorescein by insecticides; assay type: biochemical; conditions: 0.11 μM DEF substrate, 2 pmol CYP6P4, inhibitor 25-0.011 μM, 30 °C
Procedure: To assess differences in the degree of binding of the recombinant CYP6P4 to insecticides from different classes, inhibition assay was conducted with DEF and nine insecticides (inhibitors). […] 25 μl of pre-warmed regeneration buffer (7.8 mg glucose-6-phosphate, 0.25 mM MgCl2, 1.7 mg NADP, 6 U/ml glucose-6-phosphate dehydrogenase and 2% w/v NaHCO3) was incorporated into the wells. Fluorescence was monitored for 21 cycles at interval of 1 min with shaking at every step, at 30 °C. Results were analysed with GraphPad Prism software and inhibition at each inhibitor concentration and incubation time calculated as residual control activity towards DEF.

[4] = target: T1, CYP6P4; test: Fluorogenic probes assay (O-dealkylation, DEF kinetics); assay type: biochemical; conditions: 0-2 μM diethoxyfluorescein, 2 pmol enzyme, 10 min
Procedure: To find out whether there are differences in the degree of binding of recombinant CYP6P4 to different insecticides, membrane was also tested for O-dealkylation towards seven (7) fluorogenic probes: resorufin-based 7-ethoxyresurofin (7-ER), resurofin methyl ether (RME), resorufin-benzylether (RBE) and resorufin-pentylether (RPE); coumarin-based probes: 7-ethoxy-4-trifluoromethylcoumarin (7-EFC) and 7-methoxy-4-trifluoromethylcoumarin (MFC); and diethoxyfluorescein (DEF). […] Membranes were activated for 5 min at 37 °C in fluorescence spectrophotometer FLOUstar Omega (BMG LABTECH, Ortenberg, Germany) before 25 μl NADPH regeneration buffer (1 mM glucose-6-phosphate (G6P), 0.25 mM MgCl2, 0.1 mM NADP and 1 U/ml glucose-6-phosphate dehydrogenase (G6PDH) prepared in KPi (pH 7.4) was added. All reactions were conducted in three replicates with negative control (–NADPH) devoid of the regeneration buffer. Rate of fluorescent product formation for 7-ER, RBE and RME (ʎexc = 544 nm, ʎemi = 590 nm), 7-EFC and MFC (ʎexc = 410 nm, ʎemi = 535 nm) and DEF (ʎexc = 485 nm, ʎemi = 530 nm) was determined by linear regression of measurement between 2 and 10 min after start of the reaction.
For kinetics, 0–2 μM diethoxyfluorescein was assayed with 2 pmol of recombinant enzyme in a total volume of 250 μl. The protocol was as outlined above, with varying substrate concentration. […]

[5] = substrate: CC1(C)C(C=C(Cl)Cl)C1C(=O)OCc1cccc(Oc2ccccc2)c1; test: purified protein, by the assay type; assay type: biochemical, Anopheles arabiensis; conditions: other: permethrin 3-30 μM, 30 min, 22.5 pmol recombinant protein
Procedure: Reactions were performed in triplicates both for + NADPH (experimental tubes) and –NADPH (negative control tubes). Km and Vmax were established from the plot of substrate concentrations against the initial velocities and fitting of the data to the Michaelis–Menten module using the least squares non-linear regression, as implemented in the GraphPad Prism 6.03 Software (GraphPad Inc., La Jolla, CA, USA).

[6] = 20 μM insecticide, 1 h incubation, 30 °C, +NADPH vs -NADPH

Row | Molecule | metabolised at 1 h, 20 µM [1, 6] [%] | resistance/susceptibility status [2] | Percentage depletion [1, 6] | also measured
1 | CC1(C)[C@H](C(=O)O[C@H](C#N)c2cccc(Oc3ccccc3)c2)[C@@H]1C=C(Br)Br [deltamethrin] | < 2 | – | – | mortality rate [2]: 90%; IC50 ([3]; read-out: IC50): 2520 nM
2 | ClC1=C(Cl)[C@]2(Cl)[C@@H]3[C@@H]4C[C@@H]([C@H]5O[C@@H]45)[C@@H]3[C@@]1(Cl)C2(Cl)Cl [dieldrin] | – | susceptible | – | –
3 | Cc1c(COC(=O)[C@@H]2[C@H](/C=C(\Cl)C(F)(F)F)C2(C)C)cccc1-c1ccccc1 (racemic) [bifenthrin] | – | – | 49.2% | –
4 | CC1(C)C(C=C(Cl)Cl)C1C(=O)OCc1cccc(Oc2ccccc2)c1 (centres unmarked) [permethrin] | 70.5 | – | – | IC50 ([3]; read-out: IC50): 970 nM
5 | CC1(C)[C@H](C(=O)O[C@H](C#N)c2cccc(Oc3ccccc3)c2)[C@@H]1/C=C(\Cl)C(F)(F)F (racemic) [λ-cyhalothrin] | 57.8 | – | – | –
6 | CNC(=O)Oc1cccc2c1OC(C)(C)O2 [bendiocarb] | – | susceptible | No activities | IC50 [3]: high IC50 values
7 | CNC(=O)Oc1ccccc1OC(C)C [propoxur] | – | – | No activities | –
8 | CCOc1ccc2c(c1)Oc1cc(OCC)ccc1C21OC(=O)c2ccccc21 [DEF, diethoxyfluorescein] | – | – | – | Kcat (maximal catalytic activity) [4]: 58.65 min⁻¹; Km [4]: 110 nM
9 | CCOc1ccc(C(C)(C)COCc2cccc(Oc3ccccc3)c2)cc1 [etofenprox] | 24.9 | – | – | –
10 | Clc1ccc(C(c2ccc(Cl)cc2)C(Cl)(Cl)Cl)cc1 [DDT] | – | resistant | – | Percentage depletion ([1]; 20 μM DDT, 1 h, following addition of sodium cholate, p = 0.08, neither dicofol nor DDE detected): up to 20%
11 | CCOC(=O)CC(SP(=S)(OC)OC)C(=O)OCC (centres unmarked) [malathion] | – | susceptible | No activities | IC50 [3]: high IC50 values
12 | B1 | – | – | – | Km [5]: 8.07 µM; kcat [5]: 3.24 min⁻¹; kcat/Km [5]: 0.4008 min^−1μM^−1
